Biological target: Bruton's Tyrosine Kinase (BTK), inactivated state (Homo sapiens (Human), UniProt Q06187)
Experiment: Bruton's Tyrosine Kinase (BTK) Inhibition TR-FRET (Time Resolved FRET) competition assay
Type: binding
Conditions: competition with Kinase Tracer 178 for BTK-Eu; plates incubated 18-24 h at 14° C.
Protocol: Bruton's Tyrosine Kinase (BTK) Inhibition TR-FRET (Time Resolved FRET) Assay
This BTK competition assay measures compound potency (IC50) for the inactivated state of Bruton's Tyrosine Kinase using FRET (Förster/Fluoresence Resonance Energy Transfer) technology. The BTK-Eu complex was incubated on ice one hour prior to use at a starting concentration of 50 nM BTK-Bioease™: 10 nM Eu-streptavidin (Perkin-Elmer Catalog #AD0062). The assay buffer consisted of 20 mM HEPES (pH 7.15), 0.1 mM DTT, 10 mM MgCl2, 0.5 mg/ml BSA with 3% Kinase Stabilizer (Fremont Biosolutions, Catalog #STB-K02). After 1 h, the reaction mixture from above was diluted 10 fold in assay buffer to make 5 nM BTK: 1 nM Eu-Streptavidin complex (donor fluorophore). 18 μl of a mixture of 0.11 nM BTK-Eu and 0.11 nM Kinase Tracer 178 (Invitrogen, Catalog #PV5593,) with BTK-Eu alone as no negative control, was then dispensed into 384-well flat bottom plates (Greiner, 784076). Compounds to be tested in assay were prepared as 10× concentrations and serial dilution in half-log increments was performed in DMSO so as to generate 10 point curves. To initiate the FRET reaction, compounds prepared as 10× stock in DMSO was added to the plates and the plates were incubated 18-24 h at 14° C.
After the incubation the plates were read on a BMG Pherastar Fluorescent plate reader (or equivalent) and used to measure the emission energy from the europium donor fluorophore (620 nm emission) and the FRET (665 nm emission). The negative control well values were averaged to obtain the mean minimum. The positive “no inhibitor” control wells were averaged to obtain the mean maximum. Percent of maximal FRET was calculated using following equation: % max FRET=100×[(FSRcmpd−FSRmean min)/(FSRmean max−FSRmean min)]
where FSR=FRET Signal ratio. % Max FRET curves were plotted in Activity Base (Excel) and the IC50 (%), hill slope, z′ and % CV were determined The mean IC50 and standard deviation will be derived from duplicate curves (singlet inhibition curves from two independent dilutions) using Microsoft Excel.
Representative compound data for this assay are listed below in Table II.

Chain of Bruton's Tyrosine Kinase (BTK), inactivated state (Q06187 whole entry): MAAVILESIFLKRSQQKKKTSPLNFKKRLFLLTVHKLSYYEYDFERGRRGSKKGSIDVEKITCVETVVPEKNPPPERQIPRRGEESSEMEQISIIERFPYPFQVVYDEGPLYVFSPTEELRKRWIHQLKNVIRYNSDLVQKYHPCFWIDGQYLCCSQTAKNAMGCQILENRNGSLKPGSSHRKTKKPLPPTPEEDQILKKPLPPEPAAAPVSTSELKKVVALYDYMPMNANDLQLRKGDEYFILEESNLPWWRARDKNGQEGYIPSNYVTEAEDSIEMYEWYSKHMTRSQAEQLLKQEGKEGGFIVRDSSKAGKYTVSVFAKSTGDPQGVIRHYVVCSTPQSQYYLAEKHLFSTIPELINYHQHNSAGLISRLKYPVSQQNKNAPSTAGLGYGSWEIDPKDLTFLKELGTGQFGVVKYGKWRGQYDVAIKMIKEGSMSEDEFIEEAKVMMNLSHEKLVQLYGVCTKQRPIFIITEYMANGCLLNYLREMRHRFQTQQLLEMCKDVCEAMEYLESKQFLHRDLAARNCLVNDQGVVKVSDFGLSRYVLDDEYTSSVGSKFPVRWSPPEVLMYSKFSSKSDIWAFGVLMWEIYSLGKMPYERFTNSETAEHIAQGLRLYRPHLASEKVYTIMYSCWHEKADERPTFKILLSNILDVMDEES

IC50 [nM]	Structure (SMILES)
0.6	C=CC(=O)N1CCC(c2c[nH]c3ncc(NC(=O)OCc4ccccc4)cc23)CC1 [Compound 31, benzyl N-[3-(1-prop-2-enoylpiperidin-4-yl)-1H-pyrrolo[2,3-b]pyridin-5-yl]carbamate]
27	C=CC(=O)N1CCC(c2c[nH]c3ncc(NC(=O)OC(C)C)cc23)CC1 [Compound 32, propan-2-yl N-[3-(1-prop-2-enoylpiperidin-4-yl)-1H-pyrrolo[2,3-b]pyridin-5-yl]carbamate]
0.6	C=CC(=O)N1C=C(c2c[nH]c3ncc(NC(=O)OCc4ccccc4)cc23)CCC1 [Compound 33, benzyl N-[3-(1-prop-2-enoyl-3,4-dihydro-2H-pyridin-5-yl)-1H-pyrrolo[2,3-b]pyridin-5-yl]carbamate]
3.6	C=CC(=O)N1CC(O)(c2c[nH]c3ncc(NC(=O)OCc4ccccc4)cc23)C1 [Compound 34, benzyl N-[3-(3-hydroxy-1-prop-2-enoylazetidin-3-yl)-1H-pyrrolo[2,3-b]pyridin-5-yl]carbamate]
